We go through twelve molecules from patent publication US4243674A, “9-Hydroxydibenzo[b,d]pyrans and intermediates therefore” (priority 1978, dated 1981).

Where two headings read alike, the source gives them in different places. Bounds are passed on as bounds.

The test system of test [1] is hot plate. The experiment in a line: Mouse hot plate analgesic testing (HP). The test is classed as in vivo, mice. As to conditions: for ANALGESIC ACTIVITY ED50, HP / ED50: hot plate, mice; for ED50: Mus musculus. The procedure:
(§1) Tests Using Thermal Nociceptive Stimuli
(a) Mouse Hot Plate Analgesic Testing
The method used is modified after Woolfe and MacDonald, J. Pharmacol. Exp. Ther., 80, 300-307 (1944). A controlled heat stimulus is applied to the feet of mice on a 1/8" thick aluminum plate. A 250 watt reflector infrared heat lamp is placed under the bottom of the aluminum plate. A thermal regulator, connected to thermistors on the plate surface, programs the heat lamp to maintain a constant temperature of 57° C. Each mouse is dropped into a glass cylinder (61/2" diameter) resting on the hot plate, and timing is begun when the animal's feet tough the plate. The mouse is observed at 0.5 and 2 hours after treatment when the test compound for the first "flicking"movements of one or both hind feet, or until 10 seconds elapse without such movements. Morphine has an MPE50 =4-5.6 mg./kg. (s.c.).
(§2) Results of the above tests are recorded as percent maximum possible effect (% MPE). The % MPE of each group is statistically compared to the % MPE of the standard and the predrug control values. The % MPE is calculated as follows: [formula]
(§3) By means of the above procedures, the analgesic activity of several compounds of this invention and of certain prior art compounds are determined. The data are reported in terms of maximum possible effect.
(§4) PBQ=phenylbenzoquinone-induced writhing; TF=tail flick; HP=hot plate; RTC=rat tail clamp; FJ=flinch jump; and TI=tail immersion assays.

Test [2] deals with phenylbenzoquinone-induced writhing. In words: Suppression of phenylbenzoquinone irritant-induced writhing (PBQ). As to conditions: mice; for ED50: Mus musculus, read-out: ANALGESIC ACTIVITY ED50, PBQ. The test is classed as in vivo, Carworth Farms CF-1 mice. The method, then: Test Using Chemical Nociceptive Stimuli
Suppression of Phenylbenzoquinone Irritant-Induced Writhing
Groups of 5 Carworth Farms CF-1 mice are pretreated subcutaneously or orally with saline, morphine, codeine or the test compound. Twenty minutes (if treated subcutaneously) or fifty minutes (if treated orally) later, each group is treated with intraperitoneal injection of phenylbenzoquinone, an irritant known to produce abdominal contractions. The mice are observed for 5 minutes for the presence or absence of writhing starting 5 minutes after the injection of the irritant. MPE50 's of the drug pretreatments in blocking writhing are ascertained.
as §2, §3, §4
In general terms: In writhing tests, fewer writhes than in controls are read as antinociception.

In test [3] the test system is tail flick. The experiment in a line: Mouse tail flick analgesic testing (TF). The test is classed as in vivo, mice. As to conditions: for ANALGESIC ACTIVITY ED50, TF / ED50: tail flick, mice; for ED50: Mus musculus.
From the text: as §1
(b) Mouse Tail Flick Analgesic Testing
Tail flick testing in mice is modified after D'Amour and Smith, J. Pharmacol. Exp. Ther., 72, 74-79 (1941), using controlled high intensity heat applied to the tail. Each mouse is placed in a snug-fitting metal cylinder, with the tail protruding through one end. This cylinder is arranged so that the tail lies flat over a concealed heat lamp. At the onset of testing, an aluminum flag over the lamp is drawn back allowing the light beam to pass through the slit and focus onto the end of the tail. A timer is simultaneously activated. The latency of a sudden flick of the tail is ascertained. Untreated mice usually react within 3-4 seconds after exposure to the lamp. The end point for protection is 10 seconds. Each mouse is tested at 0.5 and 2 hours after treatment with morphine and the test compound. Morphine has an MPE50 of 3.2-5.6 mg./kg. (s.c.).
as §2, §3, §4

Test [4] deals with tail immersion. The experiment in a line: Tail immersion procedure (TI). The test is classed as in vivo, male albino mice, Charles River CD-1 strain. As to conditions: Mus musculus, 0.5 h, read-out: ANALGESIC ACTIVITY ED50, TI 1/2 hour. The procedure: (c) Tail Immersion Procedure
The method is a modification of the receptacle procedure developed by Benbasset, et al., Arch. int. Pharmacodyn., 122, 434 (1959). Male albino mice (19-21 g.) of the Charles River CD-1 strain are weighed and marked for identification. Five animals are normally used in each drug treatment group with each animal serving as its own control. For general screening purposes, new test agents are first administered at a dose of 56 mg./kg. intraperitoneally or subcutaneously, delivered in a volume of 10 ml./kg. Preceding drug treatment and at 0.5 and 2 hours post drug, each animal is placed in the cylinder. Each cylinder is provided with holes to allow for adequate ventilation and is closed by a round nylon plug through which the animal's tail protrudes. The cylinder is held in an upright position and the tail is completely immersed in the constant temperature waterbath (56° C.). The endpoint for each trial is an energetic jerk or twitch of the tail coupled with a motor response. In some cases, the endpoint may be less vigorous post drug. To prevent undue tissue damage, the trial is terminated and the tail removed from the waterbath within 10 seconds. The response latency is recorded in seconds to the nearest 0.5 second. A vehicle control and a standard of known potency are tested concurrently with screening candidates. If the activity of a test agent has not returned to baseline values at the 2-hour testing point, response latencies are determined at 4 and 6 hours. A final measurement is made at 24 hours if activity is still observed at the end of the test day.
as §2, §3, §4

For test [5], the system named is flinch jump. In words: Flinch-jump test (FJ). It counts as in vivo, male albino rats, Charles River (Sprague-Dawley) CD strain. The note with it: Rattus norvegicus, rats, 2 hours, read-out: ANALGESIC ACTIVITY ED50, FJ 2 hours.
From the text: Tests Using Electrical Nociceptive Stimuli
A modification of the flinch-jump procedure of Tenen, Psychopharmacologia, 12, 278-285 (1968) is used for determining pain thresholds. Male albino rats (175-200 g.) of the Charles River (Sprague-Dawley) CD strain are used. Prior to receiving the drug, the feet of each rat are dipped into a 20% glycerol/saline solution. The animals are then placed in a chamber and presented with a series of 1-second shocks to the feet which are delivered in increasing intensity at 30-second intervals. These intensities are 0.26, 0.39, 0.52, 0.78, 1.05, 1.31, 1.58, 1.86, 2.13, 2.42, 2.72 and 3.04 mA. Each animal's behavior is rated for the presence of (a) flinch, (b) squeak and (c) jump or rapid forward movement at shock onset. Single upward series of shock intensities are presented to each rat just prior to, and at 0.5, 2, 4 and 24 hours subsequent to drug treatment.
as §2, §3, §4

Test [6] deals with rat tail clamp. The experiment in a line: Haffner tail pinch procedure / rat tail clamp (RTC). It counts as in vivo, male albino rats, Charles River (Sprague-Dawley) CD strain. The note with it: for ED50: 1 hour, read-out: ANALGESIC ACTIVITY ED50, RTC 1 hour. The method, then:
Tests Using Pressure Nociceptive Stimuli
Effect on the Haffner Tail Pinch Procedure
A modification of the procedure of Haffner, Experimentelle Prufung Schmerzstillender. Mittel Deutch Med. Wschr., 55, 731-732 (1929) is used to ascertain the effects of the test compound on aggressive attacking responses elicited by a stimulus pinching the tail. Male albino rats (50-60 b.) of the Charles River (Sprague-Dawley) CD strain are used. Prior to drug treatment, and again at 0.5, 1, 2 and 3 hours after treatment, a Johns Hopkins 2.5-inch "bulldog" clamp is clamped onto the root of the rat's tail. The endpoint at each trial is clear attacking and biting behavior directed toward the offending stimulus, with the latency for attack recorded in seconds. The clamp is removed in 30 seconds if attacking has not yet occurred, and the latency of response is recorded as 30 seconds. Morphine is active at 17.8 mg./kg. (i.p.).
as §2, §3, §4

In the case of `CC(CCCc1ccccc1)c1cc(O)c2c(c1)OC(C)C1CCC(O)CC21` (racemic) [CH(CH3)(CH2)3C6 H5^(a), dl-6aα-7,8,9,10,10a-hexahydro-1-hydroxy-6α-methyl-3-(1-methyl-4-phenylbutyl)-6H-dibenzo[b,d]pyran-9β-ol], in test [1], the “ANALGESIC ACTIVITY ED50, HP” value is 5.6 mg/kg. In addition, in test [2], the “ANALGESIC ACTIVITY ED50, PBQ” value was 0.94 mg/kg. For the same molecule, the “ANALGESIC ACTIVITY ED50, TF” value in test [3] stood at 1.6 mg/kg.

On to `CCCCCc1cc(O)c2c(c1)OC(C)(C)[C@@H]1CC[C@@H](O)C[C@@H]21` (relative stereo) [C5 H11, reference compound], for which the ED50 in test [1] is no less than 17.8 mg/kg; in test [4] (tail immersion, mice, 1/2 hour) it was 13 mg/kg; in test [5], 8 mg/kg; in test [2], 0.68 mg/kg; in test [6], 58 mg/kg; in test [3], 3.2 mg/kg.

Turning to `CC(CCCc1ccncc1)c1cc(O)c2c(c1)OC(C)(C)[C@@H]1CC[C@@H](O)C[C@@H]21` (relative stereo) [CH2 (CH3)(CH2)34-pyridyl, dl-6aβ,7,8,9,10,10aα-hexahydro-1-hydroxy-6,6-dimethyl-3-[1-methyl-4-(4-pyridyl)butyl]-6H-dibenzo[b,d]pyran-9β-ol], the ED50 in test [2] is 0.17 mg/kg.

On to `CC(CCCCc1ccccc1)c1cc(O)c2c(c1)OC(C)(C)[C@@H]1CC[C@@H](O)C[C@@H]21` (relative stereo) [CH(CH3 (CH2)4C6 H5, dl-6aβ,7,8,9,10,10aα-hexahydro-1-hydroxy-6,6-dimethyl-3-(1-methyl-5-phenylpentyl)-6H-dibenzo[b,d]pyran-9β-ol], for which the ED50 was 3.9 mg/kg in test [1]; 3.5 mg/kg in test [4] (tail immersion, mice, 1/2 hour); 0.42 mg/kg in test [5]; 1.33 mg/kg in test [2]; less than 3.2 mg/kg in test [6]; 2.8 mg/kg in test [3].

In the case of `CC(CCc1ccccc1)c1cc(O)c2c(c1)OC(C)(C)[C@@H]1CC[C@@H](O)C[C@@H]21` (relative stereo) [CH(CH3)(CH2)2C6 H5, dl-6aβ,7,8,9,10,10aα-hexahydro-1-hydroxy-6,6-dimethyl-3-(1-methyl-3-phenylpropyl)-6H-dibenzo[b,d]pyran-9β-ol], the ED50 in test [1] is greater than 10 mg/kg; in test [2], 5 mg/kg; in test [3] it was greater than 10 mg/kg.

For `CC(CCOc1ccccc1)c1cc(O)c2c(c1)OC(C)(C)[C@@H]1CC[C@@H](O)C[C@@H]21` (relative stereo) [CH(CH3)(CH2)2OC6 H5, dl-6aβ,7,8,9,10,10aα-hexahydro-1-hydroxy-6,6-dimethyl-3-(1-methyl-3-phenoxypropyl)-6H-dibenzo[b,d]pyran-9β-ol], in test [2], the ED50 is 0.1 to 1 mg/kg.

Take `CC(CCCc1ccccc1)c1cc(O)c2c(c1)OC(C)(C)[C@@H]1CC[C@@H](O)C[C@@H]21` (relative stereo) [CH(CH3)(CH2)3C6 H5, dl-6aβ,7,8,9,10,10aα-Hexahydro-1-hydroxy-6,6-dimethyl-3-(1-methyl-4-phenylbutyl)-6H-dibenzo[b,d]pyran-9β-ol]: the ED50 is 0.75 mg/kg in test [1]; 0.3 mg/kg in test [4] (tail immersion, mice, 1/2 hour); 0.11 mg/kg in test [5]; 0.062 mg/kg in test [2]; 1.8 mg/kg in test [6]; 0.32 mg/kg in test [3].

Turning to `CC(CCCOc1ccccc1)c1cc(O)c2c(c1)OC(C)(C)[C@@H]1CC[C@@H](O)C[C@@H]21` (relative stereo) [CH(CH3)(CH2)3OC6 H5, dl-6aβ,7,8,9,10,10aα-hexahydro-1-hydroxy-6,6-dimethyl-3-(1-methyl-4-phenoxybutyl)-6H-dibenzo[b,d]pyran-9β-ol], the ED50 in test [1] was roughly 10 mg/kg; in test [2] it was 0.39 mg/kg; in test [3] it was 1.2 mg/kg.

In the case of `CCCCCC(C)C(C)c1cc(O)c2c(c1)OC(C)(C)[C@@H]1CC[C@@H](O)C[C@@H]21` (relative stereo) [CH(CH3)CH(CH3)C5 H11, reference compound], the ED50 in test [1] worked out at 1.1 mg/kg; in test [4] (tail immersion, mice, 1/2 hour), 0.38 mg/kg; in test [5], 0.11 mg/kg; in test [2], 0.1 mg/kg; in test [6], 0.44 mg/kg; in test [3], 0.35 mg/kg.

Regarding `CC1(C)Oc2cc(OC3CCCCC3)cc(O)c2[C@@H]2C[C@H](O)CC[C@H]21` (relative stereo) [OC6 H11, dl-6aβ,7,8,9,10,10aα-1-hydroxy-6,6-dimethyl-3-cyclohexyloxy-6H-dibenzo[b,d]pyran-9β-ol], the ED50 in test [1] was greater than 10 mg/kg; in test [2], 5.3 mg/kg; in test [3] it was greater than 10 mg/kg.

Regarding `CC(CCc1ccccc1)Oc1cc(O)c2c(c1)OC(C)(C)[C@@H]1CC[C@@H](O)C[C@@H]21` (relative stereo) [OCH(CH3)(CH2)2C6 H5, dl-6aβ,7,8,9,10,10aα-hexahydro-1-hydroxy-6,6-dimethyl-3-(1-methyl-3-phenylpropoxy)-6H-dibenzo[b,d]pyran-9β-ol], the values for the ED50 in test [1], in test [2] and in test [3] were roughly 3.2 mg/kg, 0.21 mg/kg and 1.3 mg/kg, respectively.

Take `CN1CC[C@]23c4c5ccc(O)c4O[C@H]2[C@@H](O)C=C[C@H]3[C@H]1C5` [morphine, reference compound]: in test [1], the “ANALGESIC ACTIVITY ED50, HP” value came out at 4.7 mg/kg. This molecule also displayed an MPE50 hot plate in test [1] (s.c., 57° C. plate) of 4 to 5.6 mg/kg. Further, the ED50 in test [4] came to 4 mg/kg. Also, in test [2], the “ANALGESIC ACTIVITY ED50, PBQ” value was determined as 0.8 mg/kg. Also, the “ANALGESIC ACTIVITY ED50, RTC (1/2 hr.)” value in test [6] (1/2 hr. (morphine only), 30 min) came to 2.9 mg/kg. The same molecule came in with an MPE50 tail flick in test [3] (s.c.) of 3.2 to 5.6 mg/kg. For the same molecule, the “ANALGESIC ACTIVITY ED50, TF” value in test [3] was found to be 3.8 mg/kg.
